This is an account of results in PubChem BioAssay AID624369 (Broad Institute, 2012).

Inconclusive results are not listed. The source made the active and inactive calls.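 Rule for the calls: active = fitted curve crosses a set inhibition level at a dose up to twice the top tested dose; inconclusive = flat curve with moderate inhibition, or an unreliable curve fit; inactive = the rest, including signal rising instead of falling.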

This experiment can be described thus: TNFa-induced NF-kB reporter signal decrease – HEK293 LMP1 reporter cells, dry powder, set 2, selectivity assay for EBV LMP1 NF-kB inhibitor project, dose response (AID 624369). The following applies: HEK293 LMP1 TES2 NF-kB luciferase reporter, 16 h.

Consider `O=C(C[C@@H]1C[C@@H]2c3cc(NC(=O)c4cccnc4)ccc3O[C@@H]2[C@H](CO)O1)NCC(F)(F)F`, for which, for the setting “at 35 µM (top of the series)”, the activity change, negative = inhibition was -2.45% (inactive).

Turning to `C[C@H]1CN([C@@H](C)CO)C(=O)Cc2cc(NC(=O)Cc3ccccc3)ccc2O[C@@H]1CN(C)Cc1ccc(C(F)(F)F)cc1`, the activity change, negative = inhibition (at 35 µM (top of the series)) is 13.6% (inactive).

For the compound `C[C@@H]1CN([C@H](C)CO)C(=O)Cc2cc(NC(=O)Cc3ccccc3)ccc2O[C@H]1CN(C)Cc1ccc(C(F)(F)F)cc1`, the activity change, negative = inhibition (at 35 µM (top of the series)) was 2.66% (inactive).

As for `CO[C@@H]1CN(C)C(=O)c2ccc(NC(C)=O)cc2OC[C@@H](C)N(Cc2ccccc2F)C[C@H]1C`, under “at 35 µM (top of the series)”, the activity change, negative = inhibition is 3.06% (inactive).

For the compound `C[C@@H](NC(=O)C[C@@H]1C=C[C@@H](NC(=O)Cc2ccccn2)[C@@H](CO)O1)c1ccccc1`, the activity change, negative = inhibition (at 35 µM (top of the series)) is -4.92% (inactive).

Regarding `C[C@H](NC(=O)C[C@H]1C=C[C@@H](NC(=O)Cc2ccccn2)[C@@H](CO)O1)c1ccccc1`, under “at 35 µM (top of the series)”, the activity change, negative = inhibition is -2.31% (inactive).

`O=C(Nc1ccc(C(F)(F)F)cc1)Nc1ccc2c(c1)[C@H]1C[C@@H](CC(=O)N3CCc4ccccc4C3)O[C@@H](CO)[C@H]1O2`: the activity change, negative = inhibition (at 35 µM (top of the series)) is 0.365% (inactive).

As for `COC(=O)C[C@H]1C[C@H]2c3cc(NC(=O)CN(C)C)ccc3O[C@H]2[C@H](CO)O1`, the activity change, negative = inhibition (at 35 µM (top of the series)) was 4.38% (inactive).

`C[C@@H]1CN([C@H](C)CO)C(=O)Cc2cc(NC(=O)Cc3ccccc3)ccc2O[C@@H]1CN(C)Cc1ccc(C(F)(F)F)cc1`: where the note is “at 16 µM (top of the series)”, the activity change, negative = inhibition is 23.7% (inactive).

For the compound `C[C@@H](NC(=O)C[C@H]1C=C[C@@H](NC(=O)Cc2ccccn2)[C@H](CO)O1)c1ccccc1`, where the note is “at 35 µM (top of the series)”, the activity change, negative = inhibition is -3.95% (inactive).

As to `C[C@H](NC(=O)C[C@@H]1C=C[C@H](NC(=O)Cc2ccccn2)[C@H](CO)O1)c1ccccc1`, the activity change, negative = inhibition (at 30 µM (top of the series)) is -0.606% (inactive).

As for `C[C@H]1CN([C@@H](C)CO)C(=O)Cc2cc(NC(=O)Cc3ccccc3)ccc2O[C@H]1CN(C)Cc1ccc(C(F)(F)F)cc1`, the activity change, negative = inhibition (at 35 µM (top of the series)) is 63.2% (inactive).

Turning to `COc1cccc(S(=O)(=O)N(C)C[C@H]2Oc3cc(C4=CCCCC4)ccc3S(=O)(=O)N([C@@H](C)CO)C[C@@H]2C)c1`, the activity change, negative = inhibition (at 35 µM (top of the series)) was 12% (inactive).

`C[C@@H](NC(=O)C[C@@H]1C=C[C@H](NC(=O)Cc2ccccn2)[C@H](CO)O1)c1ccccc1`: under “at 35 µM (top of the series)”, the activity change, negative = inhibition is -2.15% (inactive).

Take `C[C@@H]1CN([C@H](C)CO)C(=O)c2c(c3ccccc3n2C)-c2ccccc2CO[C@@H]1CN(C)C(=O)Nc1ccc(F)cc1`: the activity change, negative = inhibition (at 35 µM (top of the series)) was -1.47% (inactive).

As for `C[C@@H](NC(=O)C[C@@H]1C=C[C@@H](NC(=O)Cc2ccccn2)[C@H](CO)O1)c1ccccc1`, the activity change, negative = inhibition (at 35 µM (top of the series)) is -0.205% (inactive).

For `C[C@H](NC(=O)C[C@@H]1C=C[C@@H](NC(=O)Cc2ccccn2)[C@H](CO)O1)c1ccccc1`, for the setting “at 35 µM (top of the series)”, the activity change, negative = inhibition is -3.22% (inactive).

As for `COc1ccccc1C(=O)Nc1ccc2c(c1)C(=O)N(C)[C@@H]1CC[C@H](CC(=O)NCCc3ccncc3)O[C@H]1CO2`, the activity change, negative = inhibition (at 35 µM (top of the series)) was -5.47% (inactive).

In the case of `O=C(C[C@@H]1C[C@H]2c3cc(NS(=O)(=O)c4ccc(F)cc4)ccc3O[C@H]2[C@@H](CO)O1)NC1CCCCC1`, the activity change, negative = inhibition (at 35 µM (top of the series)) is -3.73% (inactive).

With `CO[C@H](CN(C)S(=O)(=O)c1cccc(Cl)c1)[C@@H](C)CN([C@H](C)CO)S(=O)(=O)c1ccc(Cl)cc1`, the activity change, negative = inhibition (at 35 µM (top of the series)) is -1.32% (inactive).

For `O=C(C[C@H]1C[C@@H]2c3cc(NS(=O)(=O)c4ccc(F)cc4)ccc3O[C@@H]2[C@H](CO)O1)NC1CCCCC1`, the activity change, negative = inhibition (at 35 µM (top of the series)) is -5.14% (inactive).

For the compound `O=C(Cc1ccccn1)NCC[C@H]1CC[C@@H](NC(=O)Nc2ccc(Cl)cc2)[C@@H](CO)O1`, the activity change, negative = inhibition (at 35 µM (top of the series)) is -6.43% (inactive).

In the case of `O=C(Cc1ccccn1)NCC[C@H]1CC[C@H](NC(=O)Nc2ccc(Cl)cc2)[C@H](CO)O1`, the activity change, negative = inhibition (at 35 µM (top of the series)) is -3.5% (inactive).

As to `COc1cccc(S(=O)(=O)N(C)C[C@@H]2Oc3cc(C4=CCCCC4)ccc3S(=O)(=O)N([C@@H](C)CO)C[C@@H]2C)c1`, the activity change, negative = inhibition (at 35 µM (top of the series)) is 17.7% (inactive).

As to `CS(=O)(=O)Nc1ccc2c(c1)[C@@H]1C[C@H](CC(=O)NCC3CC3)O[C@H](CO)[C@@H]1O2`, the activity change, negative = inhibition (at 35 µM (top of the series)) was 6.19% (inactive).

Take `COc1ccccc1CNC(=O)C[C@H]1C[C@@H]2c3cc(NC(=O)CN(C)C)ccc3O[C@@H]2[C@@H](CO)O1`: the activity change, negative = inhibition (at 35 µM (top of the series)) is -0.186% (inactive).

For `C[C@H](CO)N1C[C@H](C)[C@H](CN(C)C(=O)NC2CCCCC2)Oc2cc(/C=C/c3ccccc3)ccc2S1(=O)=O`, the activity change, negative = inhibition (at 35 µM (top of the series)) was -10.3% (inactive).

`C[C@H](NC(=O)C[C@@H]1C=C[C@H](NC(=O)Cc2ccccn2)[C@@H](CO)O1)c1ccccc1`: the activity change, negative = inhibition (at 35 µM (top of the series)) is -2.15% (inactive).

Consider `COc1cccc(S(=O)(=O)N(C)C[C@@H]2Oc3cc(C4=CCCCC4)ccc3S(=O)(=O)N([C@H](C)CO)C[C@H]2C)c1`, for which, for the setting “at 35 µM (top of the series)”, the activity change, negative = inhibition is -5.06% (inactive).

With `Cc1noc(C)c1S(=O)(=O)Nc1ccc2c(c1)C(=O)N([C@@H](C)CO)C[C@@H](C)[C@@H](CN(C)Cc1ccc(C(F)(F)F)cc1)OCCCC[C@@H](C)O2`, the activity change, negative = inhibition (at 35 µM (top of the series)) was 30.6% (inactive).

In the case of `COc1cccc(S(=O)(=O)N(C)C[C@@H]2Oc3cc(C4=CCCCC4)ccc3S(=O)(=O)N([C@@H](C)CO)C[C@H]2C)c1`, the activity change, negative = inhibition (at 35 µM (top of the series)) was -6.23% (inactive).

Turning to `O=C(C[C@@H]1C[C@@H]2c3cc(NS(=O)(=O)c4ccc(F)cc4)ccc3O[C@@H]2[C@H](CO)O1)NC1CCCCC1`, the activity change, negative = inhibition (at 35 µM (top of the series)) was 12.6% (inactive).

On to `C[C@@H]1CN([C@@H](C)CO)C(=O)c2c(c3ccccc3n2C)-c2ccccc2CO[C@@H]1CN(C)C(=O)Nc1ccc(F)cc1`, for which, under “at 35 µM (top of the series)”, the activity change, negative = inhibition was 3.56% (inactive).

For the compound `CS(=O)(=O)Nc1ccc2c(c1)[C@H]1C[C@@H](CC(=O)NCC3CC3)O[C@@H](CO)[C@H]1O2`, the activity change, negative = inhibition (at 35 µM (top of the series)) is -2.86% (inactive).

For `Cc1noc(C)c1S(=O)(=O)Nc1ccc2c(c1)C(=O)N([C@H](C)CO)C[C@H](C)[C@H](CN(C)Cc1ccc(C(F)(F)F)cc1)OCCCC[C@@H](C)O2`, the activity change, negative = inhibition (at 35 µM (top of the series)) was 62.1% (inactive).

Consider `O=C(Cc1ccccn1)NCC[C@@H]1CC[C@@H](NC(=O)Nc2ccc(Cl)cc2)[C@H](CO)O1`, for which the activity change, negative = inhibition (at 35 µM (top of the series)) is 1.95% (inactive).

Regarding `COc1cccc(C#Cc2ccc([C@@H]3[C@H](C#N)N(C(=O)c4ccccn4)[C@H]3CO)cc2)c1`, the activity change, negative = inhibition (at 35 µM (top of the series)) was -1.9% (inactive).

For `CN(C)c1ccc2c(c1)[C@@H]1C[C@@H](CC(=O)NCc3ccc(Oc4ccccc4)cc3)O[C@@H](CO)[C@@H]1O2`, the activity change, negative = inhibition (at 35 µM (top of the series)) is -31.8% (inactive).

Consider `C[C@H](NC(=O)C[C@H]1C=C[C@H](NC(=O)Cc2ccccn2)[C@H](CO)O1)c1ccccc1`, for which the activity change, negative = inhibition (at 35 µM (top of the series)) was 3.06% (inactive).

As to `COC(=O)C[C@@H]1C[C@@H]2c3cc(NC(=O)CN(C)C)ccc3O[C@@H]2[C@@H](CO)O1`, the activity change, negative = inhibition (at 35 µM (top of the series)) was 4.43% (inactive).

Consider `C[C@@H]1CN([C@@H](C)CO)C(=O)Cc2cc(NC(=O)Cc3ccccc3)ccc2O[C@@H]1CN(C)Cc1ccc(C(F)(F)F)cc1`, for which the activity change, negative = inhibition (at 35 µM (top of the series)) is 26.6% (inactive).
